Measurements reported in patent publication US6960574B2, “Antagonists of RF-amide neuropeptides” (University of Florida, priority 2002, dated 2005).
Peptide text beside a SMILES is read from it. * marks the point of attachment. Dansyl = CN(C)c1cccc2c(S(=O)(=O)*)cccc12

Test system: receptor labeled by the radioiodinated analogue of 1 (4, [125I]-YLFQPQRF-NH2); neuropeptide FF receptor
Assay: Competitive radioligand binding against 4 ([125I]Y8F-amide)
Details: mixture-based positional scanning; difference from averaged radioligand displacement of whole library (0); about 80 a.u. = 10-fold change in Ki

SMILES | Relative Binding Index (RBI) [a.u.]
C[C@@H](O)[C@H](NC(=O)[C@H](CCCNC(=N)N)NS(=O)(=O)c1cccc2c(N(C)C)cccc12)C(=O)N[C@@H](CCCNC(=N)N)C(N)=O [Dansyl-RTR-amide] (Dansyl-Arg-Thr-Arg-NH2) | 12
CC(C)[C@H](NC(=O)[C@H](CCCNC(=N)N)NS(=O)(=O)c1cccc2c(N(C)C)cccc12)C(=O)N[C@@H](CCCNC(=N)N)C(N)=O [Dansyl-RVR-amide] (Dansyl-Arg-Val-Arg-NH2) | 2
CN(C)c1cccc2c(S(=O)(=O)N[C@@H](CCCNC(=N)N)C(=O)N[C@@H](Cc3c[nH]c4ccccc34)C(=O)N[C@@H](CCCNC(=N)N)C(N)=O)cccc12 [Dansyl-RWR-amide] (Dansyl-Arg-Trp-Arg-NH2) | 16
CN(C)c1cccc2c(S(=O)(=O)N[C@@H](CCCNC(=N)N)C(=O)N[C@@H](Cc3ccc(O)cc3)C(=O)N[C@@H](CCCNC(=N)N)C(N)=O)cccc12 [Dansyl-RYR-amide] (Dansyl-Arg-Tyr-Arg-NH2) | 6
C[C@H](NC(=O)[C@H](CO)NS(=O)(=O)c1cccc2c(N(C)C)cccc12)C(=O)N[C@@H](CCCNC(=N)N)C(N)=O [Dansyl-SAR-amide] (Dansyl-Ser-Ala-Arg-NH2) | −33
CN(C)c1cccc2c(S(=O)(=O)N[C@@H](CO)C(=O)N[C@@H](CC(=O)O)C(=O)N[C@@H](CCCNC(=N)N)C(N)=O)cccc12 [Dansyl-SDR-amide] (Dansyl-Ser-Asp-Arg-NH2) | −2
CN(C)c1cccc2c(S(=O)(=O)N[C@@H](CO)C(=O)N[C@@H](CCC(=O)O)C(=O)N[C@@H](CCCNC(=N)N)C(N)=O)cccc12 [Dansyl-SER-amide] (Dansyl-Ser-Glu-Arg-NH2) | 16
CN(C)c1cccc2c(S(=O)(=O)N[C@@H](CO)C(=O)N[C@@H](Cc3ccccc3)C(=O)N[C@@H](CCCNC(=N)N)C(N)=O)cccc12 [Dansyl-SFR-amide] (Dansyl-Ser-Phe-Arg-NH2) | 15
CN(C)c1cccc2c(S(=O)(=O)N[C@@H](CO)C(=O)NCC(=O)N[C@@H](CCCNC(=N)N)C(N)=O)cccc12 [Dansyl-SGR-amide] (Dansyl-Ser-Gly-Arg-NH2) | 22
CN(C)c1cccc2c(S(=O)(=O)N[C@@H](CO)C(=O)N[C@@H](Cc3c[nH]cn3)C(=O)N[C@@H](CCCNC(=N)N)C(N)=O)cccc12 [Dansyl-SHR-amide] (Dansyl-Ser-His-Arg-NH2) | 11
CC[C@H](C)[C@H](NC(=O)[C@H](CO)NS(=O)(=O)c1cccc2c(N(C)C)cccc12)C(=O)N[C@@H](CCCNC(=N)N)C(N)=O [Dansyl-SIR-amide] (Dansyl-Ser-Ile-Arg-NH2) | 23
CN(C)c1cccc2c(S(=O)(=O)N[C@@H](CO)C(=O)N[C@@H](CCCCN)C(=O)N[C@@H](CCCNC(=N)N)C(N)=O)cccc12 [Dansyl-SKR-amide] (Dansyl-Ser-Lys-Arg-NH2) | 14
CC(C)C[C@H](NC(=O)[C@H](CO)NS(=O)(=O)c1cccc2c(N(C)C)cccc12)C(=O)N[C@@H](CCCNC(=N)N)C(N)=O [Dansyl-SLR-amide] (Dansyl-Ser-Leu-Arg-NH2) | 8
CSCC[C@H](NC(=O)[C@H](CO)NS(=O)(=O)c1cccc2c(N(C)C)cccc12)C(=O)N[C@@H](CCCNC(=N)N)C(N)=O [Dansyl-SMR-amide] (Dansyl-Ser-Met-Arg-NH2) | 16
CN(C)c1cccc2c(S(=O)(=O)N[C@@H](CO)C(=O)N[C@@H](CC(N)=O)C(=O)N[C@@H](CCCNC(=N)N)C(N)=O)cccc12 [Dansyl-SNR-amide] (Dansyl-Ser-Asn-Arg-NH2) | 18
CN(C)c1cccc2c(S(=O)(=O)N[C@@H](CO)C(=O)N3CCC[C@H]3C(=O)N[C@@H](CCCNC(=N)N)C(N)=O)cccc12 [Dansyl-SPR-amide] (Dansyl-Ser-Pro-Arg-NH2) | 20
CN(C)c1cccc2c(S(=O)(=O)N[C@@H](CO)C(=O)N[C@@H](CCC(N)=O)C(=O)N[C@@H](CCCNC(=N)N)C(N)=O)cccc12 [Dansyl-SQR-amide] (Dansyl-Ser-Gln-Arg-NH2) | 30
CN(C)c1cccc2c(S(=O)(=O)N[C@@H](CO)C(=O)N[C@@H](CCCNC(=N)N)C(=O)N[C@@H](CCCNC(=N)N)C(N)=O)cccc12 [Dansyl-SRR-amide] (Dansyl-Ser-Arg-Arg-NH2) | 15
CN(C)c1cccc2c(S(=O)(=O)N[C@@H](CO)C(=O)N[C@@H](CO)C(=O)N[C@@H](CCCNC(=N)N)C(N)=O)cccc12 [Dansyl-SSR-amide] (Dansyl-Ser-Ser-Arg-NH2) | 37
C[C@@H](O)[C@H](NC(=O)[C@H](CO)NS(=O)(=O)c1cccc2c(N(C)C)cccc12)C(=O)N[C@@H](CCCNC(=N)N)C(N)=O [Dansyl-STR-amide] (Dansyl-Ser-Thr-Arg-NH2) | 22
CC(C)[C@H](NC(=O)[C@H](CO)NS(=O)(=O)c1cccc2c(N(C)C)cccc12)C(=O)N[C@@H](CCCNC(=N)N)C(N)=O [Dansyl-SVR-amide] (Dansyl-Ser-Val-Arg-NH2) | 12
CN(C)c1cccc2c(S(=O)(=O)N[C@@H](CO)C(=O)N[C@@H](Cc3c[nH]c4ccccc34)C(=O)N[C@@H](CCCNC(=N)N)C(N)=O)cccc12 [Dansyl-SWR-amide] (Dansyl-Ser-Trp-Arg-NH2) | 25
CN(C)c1cccc2c(S(=O)(=O)N[C@@H](CO)C(=O)N[C@@H](Cc3ccc(O)cc3)C(=O)N[C@@H](CCCNC(=N)N)C(N)=O)cccc12 [Dansyl-SYR-amide] (Dansyl-Ser-Tyr-Arg-NH2) | 15
C[C@H](NC(=O)[C@@H](NS(=O)(=O)c1cccc2c(N(C)C)cccc12)[C@@H](C)O)C(=O)N[C@@H](CCCNC(=N)N)C(N)=O [Dansyl-TAR-amide] (Dansyl-Thr-Ala-Arg-NH2) | −58
C[C@@H](O)[C@H](NS(=O)(=O)c1cccc2c(N(C)C)cccc12)C(=O)N[C@@H](CC(=O)O)C(=O)N[C@@H](CCCNC(=N)N)C(N)=O [Dansyl-TDR-amide] (Dansyl-Thr-Asp-Arg-NH2) | −27
C[C@@H](O)[C@H](NS(=O)(=O)c1cccc2c(N(C)C)cccc12)C(=O)N[C@@H](CCC(=O)O)C(=O)N[C@@H](CCCNC(=N)N)C(N)=O [Dansyl-TER-amide] (Dansyl-Thr-Glu-Arg-NH2) | −8
CC(O)C(NS(=O)(=O)c1cccc2c(N(C)C)cccc12)C(=O)NC(Cc1ccccc1)C(=O)NC(CCCNC(=N)N)C(N)=O (stereo not drawn) [Dansyl-TFR-amide] (Dansyl-Thr-Phe-Arg-NH2; configuration not given here) | −10
C[C@@H](O)[C@H](NS(=O)(=O)c1cccc2c(N(C)C)cccc12)C(=O)NCC(=O)N[C@@H](CCCNC(=N)N)C(N)=O [Dansyl-TGR-amide] (Dansyl-Thr-Gly-Arg-NH2) | −3
